Tests used:
Format in all cases: cell-based, human
HL-60 cells = assay: Effect of 10 mM citric acid on HL-60 energy utilization; conditions: negative control without energy sources and without citric acid
HepG2 cells = HepG2 cells on flat bottom plastic wells, energy sources at a range of concentrations
Procedure: In this Example, methods for testing adherent cells for their ability to use multiple carbon sources are described. The human hepatocellular carcinoma cell line known as HepG2 (Knowles et al., Science, 209:497-499 [1980]) was chosen for this experiment. However, this application is not intended to be limited to the use of HepG2 cells, hepatocytes, carcinoma cells or even human cells.
HepG2 cells were grown in Falcon tissue culture flasks with vented tops. The culture medium used was Minimal Essential medium (MEM, Invitrogen 11095) with 1 g/L glucose, 2 mM L-glutamine, 2.2 g/L sodium bicarbonate, 10 mg/L phenol red, and supplemented with 0.1 mM Nonessential Amino Acids, 1 mM sodium pyruvate, 50 U/mL penicillin, 50 μg/mL streptomycin, and 10% (v/v) heat inactivated fetal bovine serum (HI FBS, Invitrogen 16140). The cells were seeded at 2×10^4/cm^2 and used 3 days after initiation of culture. During all incubations, the cells were kept in an atmosphere of 5% CO2, 90-100% humidity, and 37° C. Cells were harvested by trypsinization for 3 minutes in 0.25% trypsin-1 mM EDTA and resuspended in an equal volume of culture medium. A viable cell count was obtained by trypan blue exclusion and an appropriate volume of the cell suspension (to have 33% more viable cells than was sufficient for the experiment) was placed in a polypropylene centrifuge tube. Cells were pelleted by centrifugation at 350×g for 10 minutes at room temperature, resuspended in Dulbecco's Phosphate Buffered Saline (D-PBS, Invitrogen 14040) and centrifuged a second time. Cells were then resuspended to two-thirds the final volume needed in Dulbecco' ? s Modified Eagle's Medium (DME, Sigma D5030) containing 10% HI FBS and penicillin-streptomycin but without glucose, L-glutamine, sodium pyruvate, and phenol red. An aliquot was counted by trypan blue exclusion and the cell density was adjusted to 1.28×10^5/mL. Cells were plated in 100 μL/well in wells of standard, 96-well plates (4×10^4 cells/cm^2) and allowed to adhere overnight prior to addition of test chemicals.
For assay, the culture medium was aspirated, the wells were washed once with D-PBS and 170 μL of DME were added to each well, followed by 30 μL of the appropriate dilution of each test energy source. Stocks of 133 mM of each test chemical were prepared in tissue culture grade water, sterile filtered, and dilutions were prepared in a master plate so that, upon dilution into a regular 96-well MICROPLATE a total well volume of 200 μL, the final concentrations would be 0.033 to 20 mM. Negative control wells received 30 μL of tissue culture grade water. For each plate containing energy sources and cells, a second, control plate containing only energy sources was prepared. Plates were incubated at 5% CO2, 90-100% humidity, and 37° C. for 48 to 72 hours prior to addition of the MTS/PMS colorometric reagent (10 μL/well). The color formed in each well 4-24 hours after addition of the calorimetric reagent, was measured with a plate reader at 490 nm with a reference wavelength of 650 nm. OD values from the control plate were subtracted from the OD values obtained with cells prior to normalizing the data to % negative control (cells without added energy source).

[1] = system: DMSO-differentiated HL-60 cells; assay: Energy use by DMSO-differentiated HL-60 cells
Procedure: In this Example, methods for testing in vitro-differentiated cells for their ability to use multiple energy sources are described. Prior to differentiation, HL-60 cells were cultured as described in Example 27. DMSO-induced differentiation (Odani et al., Res. Commun. Mol. Pathol. Pharmacol. 108:381-391 [2000]; and Yamaguchi et al., Biol. Pharm. Bull. 20:943-947 [1997]) was accomplished by incubation of the cells in the presence of 1.25% DMSO for 3 days.
After washing, HL-60 cells were resuspended in DME-R. An aliquot of the cell suspension was counted by trypan blue exclusion and the cell density was adjusted to 6.67×10^5/mL. Fifty μL of DME-R were added to each well of the appropriate number of half area, 96-well plates, followed by 25 μL of the appropriate dilution of each test energy source. Stocks of 133 mM of each test chemical were prepared in tissue culture grade water, sterile filtered, and dilutions were prepared in a master plate so that, upon dilution into a half-area 96-well microtiter plate to a total well volume of 150 μL, the final concentrations would be 0.033 to 20 mM. Negative control wells received 25 μL of tissue culture grade water. The cells were plated at a volume of 75 μL/well, giving a final cell density of 5×10^4/well. For each plate containing energy sources and cells, a second, control plate containing only energy sources was prepared with the same total volume of liquid (148 μL/well). Plates were incubated at 5% CO2, 90-100% humidity, and 37° C. for 24 hours prior to addition of the MTS/MPMS calorimetric reagent (7.5 μL/well). The color formed in each well 24 hours after addition of the colorimetric reagent, was measured with a plate reader at 490 nm with a reference wavelength of 650 nm. OD values from the control plate were subtracted from the OD values obtained with cells prior to normalizing the data to % negative control (cells without added energy source).

[2] = energy source 0.03 mM with 10 mM citric acid
[3] = energy source 0.10 mM with 10 mM citric acid
[4] = energy source 0.33 mM with 10 mM citric acid
[5] = energy source 1.00 mM with 10 mM citric acid
[6] = energy source 3.3 mM with 10 mM citric acid
[7] = energy source 10 mM with 10 mM citric acid
[8] = energy source 15 mM with 10 mM citric acid
[9] = energy source 20 mM with 10 mM citric acid

NC(=O)C[C@H](N)C(=O)O [L-asparagine]
Effect of 10 mM Citric Acid on HL-60 Energy Utilization (HL-60 cells; [2]): 10.1 % of negative control | Effect of 10 mM Citric Acid on HL-60 Energy Utilization (HL-60 cells; [3]): 15.3 % of negative control | Effect of 10 mM Citric Acid on HL-60 Energy Utilization (HL-60 cells; [4]): 13.4 % of negative control | Effect of 10 mM Citric Acid on HL-60 Energy Utilization (HL-60 cells; [5]): 24.6 % of negative control | Effect of 10 mM Citric Acid on HL-60 Energy Utilization (HL-60 cells; [6]): 48.6 % of negative control | Effect of 10 mM Citric Acid on HL-60 Energy Utilization (HL-60 cells; [7]): 100.1 % of negative control | Effect of 10 mM Citric Acid on HL-60 Energy Utilization (HL-60 cells; [8]): 97.7 % of negative control | Effect of 10 mM Citric Acid on HL-60 Energy Utilization (HL-60 cells; [9]): 98.3 % of negative control | activity at 30 µM (HepG2 cells; Homo sapiens, HepG2, 72 h, Conc. 0.03 mM, read-out: HepG2 Cells Responses After 72 hours in Culture and a 4 hour Color Development Period): 122% | activity at 100 µM (HepG2 cells; Homo sapiens, HepG2, 72 h, Conc. 0.10 mM, read-out: HepG2 Cells Responses After 72 hours in Culture and a 4 hour Color Development Period): 190% | activity at 330 µM (HepG2 cells; Homo sapiens, HepG2, 72 h, Conc. 0.33 mM, read-out: HepG2 Cells Responses After 72 hours in Culture and a 4 hour Color Development Period): 203% | activity at 1000 µM (HepG2 cells; Homo sapiens, HepG2, 72 h, Conc. 1.00 mM, read-out: HepG2 Cells Responses After 72 hours in Culture and a 4 hour Color Development Period): 173% | activity at 3300 µM (HepG2 cells; Homo sapiens, HepG2, 72 h, Conc. 3.3 mM, read-out: HepG2 Cells Responses After 72 hours in Culture and a 4 hour Color Development Period): 161% | activity at 10000 µM (HepG2 cells; Homo sapiens, HepG2, 72 h, Conc. 10 mM, read-out: HepG2 Cells Responses After 72 hours in Culture and a 4 hour Color Development Period): 124% | activity at 15000 µM (HepG2 cells; Homo sapiens, HepG2, 72 h, Conc. 15 mM, read-out: HepG2 Cells Responses After 72 hours in Culture and a 4 hour Color Development Period): 112% | activity at 20000 µM (HepG2 cells; Homo sapiens, HepG2, 72 h, Conc. 20 mM, read-out: HepG2 Cells Responses After 72 hours in Culture and a 4 hour Color Development Period): 52.2% | activity at 30 µM ([1]; Homo sapiens, HL-60, 24 h, Conc. 0.03 mM, read-out: Energy Use by DMSO-Differentiated HL-60 Cells): 106% | activity at 100 µM ([1]; Homo sapiens, HL-60, 24 h, Conc. 0.10 mM, read-out: Energy Use by DMSO-Differentiated HL-60 Cells): 112% | activity at 330 µM ([1]; Homo sapiens, HL-60, 24 h, Conc. 0.33 mM, read-out: Energy Use by DMSO-Differentiated HL-60 Cells): 122% | activity at 1000 µM ([1]; Homo sapiens, HL-60, 24 h, Conc. 1.00 mM, read-out: Energy Use by DMSO-Differentiated HL-60 Cells): 143% | activity at 3300 µM ([1]; Homo sapiens, HL-60, 24 h, Conc. 3.3 mM, read-out: Energy Use by DMSO-Differentiated HL-60 Cells): 153% | activity at 10000 µM ([1]; Homo sapiens, HL-60, 24 h, Conc. 10 mM, read-out: Energy Use by DMSO-Differentiated HL-60 Cells): 167% | activity at 15000 µM ([1]; Homo sapiens, HL-60, 24 h, Conc. 15 mM, read-out: Energy Use by DMSO-Differentiated HL-60 Cells): 152% | activity at 20000 µM ([1]; Homo sapiens, HL-60, 24 h, Conc. 20 mM, read-out: Energy Use by DMSO-Differentiated HL-60 Cells): 134%

O=C1O[C@H]([C@@H](O)CO)[C@@H](O)[C@@H]1O [L-gal acid g-lactone]
Effect of 10 mM Citric Acid on HL-60 Energy Utilization (HL-60 cells; [2]): 16.2 % of negative control | Effect of 10 mM Citric Acid on HL-60 Energy Utilization (HL-60 cells; [3]): 18.2 % of negative control | Effect of 10 mM Citric Acid on HL-60 Energy Utilization (HL-60 cells; [4]): 19.7 % of negative control | Effect of 10 mM Citric Acid on HL-60 Energy Utilization (HL-60 cells; [5]): 38.6 % of negative control | Effect of 10 mM Citric Acid on HL-60 Energy Utilization (HL-60 cells; [6]): 188.9 % of negative control | Effect of 10 mM Citric Acid on HL-60 Energy Utilization (HL-60 cells; [7]): 138.4 % of negative control | Effect of 10 mM Citric Acid on HL-60 Energy Utilization (HL-60 cells; [8]): 122.4 % of negative control | Effect of 10 mM Citric Acid on HL-60 Energy Utilization (HL-60 cells; [9]): 111.5 % of negative control | HepG2 Cells Responses After 72 hours in Culture and a 4 hour Color Development Period (HepG2 cells; Conc. 0.03 mM): 121.2 % of negative control | HepG2 Cells Responses After 72 hours in Culture and a 4 hour Color Development Period (HepG2 cells; Conc. 0.10 mM): 127.4 % of negative control | HepG2 Cells Responses After 72 hours in Culture and a 4 hour Color Development Period (HepG2 cells; Conc. 0.33 mM): 196.4 % of negative control | HepG2 Cells Responses After 72 hours in Culture and a 4 hour Color Development Period (HepG2 cells; Conc. 1.00 mM): 164.1 % of negative control | HepG2 Cells Responses After 72 hours in Culture and a 4 hour Color Development Period (HepG2 cells; Conc. 3.3 mM): 172.8 % of negative control | HepG2 Cells Responses After 72 hours in Culture and a 4 hour Color Development Period (HepG2 cells; Conc. 10 mM): 181.5 % of negative control | HepG2 Cells Responses After 72 hours in Culture and a 4 hour Color Development Period (HepG2 cells; Conc. 15 mM): 215.1 % of negative control | HepG2 Cells Responses After 72 hours in Culture and a 4 hour Color Development Period (HepG2 cells; Conc. 20 mM): 231.2 % of negative control | Energy Use by DMSO-Differentiated HL-60 Cells ([1]; Conc. 0.03 mM): 113.9 % of negative control | Energy Use by DMSO-Differentiated HL-60 Cells ([1]; Conc. 0.10 mM): 129.2 % of negative control | Energy Use by DMSO-Differentiated HL-60 Cells ([1]; Conc. 0.33 mM): 137.5 % of negative control | Energy Use by DMSO-Differentiated HL-60 Cells ([1]; Conc. 1.00 mM): 155.4 % of negative control | Energy Use by DMSO-Differentiated HL-60 Cells ([1]; Conc. 3.3 mM): 178.2 % of negative control | Energy Use by DMSO-Differentiated HL-60 Cells ([1]; Conc. 10 mM): 171.1 % of negative control | Energy Use by DMSO-Differentiated HL-60 Cells ([1]; Conc. 15 mM): 131.1 % of negative control | Energy Use by DMSO-Differentiated HL-60 Cells ([1]; Conc. 20 mM): 98.1 % of negative control
